Laboratory results published in patent US20260070945A1, “MACROCYCLIC IMMUNOMODULATORS” (Bristol-Myers Squibb Company, priority 2022, published 2026).
Where a SMILES comes first, the peptide text is derived from it. Bridges are numbered along the chain shown (N, C = ends). [ ]: non-standard residue; d: D form. The star is where a group is joined. ξ: configuration not given here. Phe(4-CF3) = N[C@@H](Cc1ccc(C(F)(F)F)cc1)C(=O)O; Phe(4-COOH) = N[C@@H](Cc1ccc(C(=O)O)cc1)C(=O)O; Bip = N[C@@H](Cc1ccc(-c2ccccc2)cc1)C(=O)O; NH(CH2)14COOH = O=C(O)CCCCCCCCCCCCCCN*; Phe(3-Me) = Cc1cccc(C[C@H](N)C(=O)O)c1; Val(3-OH) = CC(C)(O)[C@H](N)C(=O)O; Pip(4-aza) = O=C(O)[C@@H]1CNCCN1; 4Pal = N[C@@H](Cc1ccncc1)C(=O)O; Cha = N[C@@H](CC1CCCCC1)C(=O)O; Cit = NC(=O)NCCC[C@H](N)C(=O)O; Thr(3ξ) = CC(O)[C@H](N)C(=O)O; Carboxymethyl = O=C(O)C*; NMeA = CN[C@@H](C)C(=O)O; Aun = NCCCCCCCCCCC(=O)O; Dab = NCC[C@H](N)C(=O)O; Dap = NC[C@H](N)C(=O)O; AEEA = NCCOCCOCC(=O)O

target: T1, PD-1/PD-L1 interaction (PE-labeled human PD-L1-Ig binding to Jurkat cell line over-expressing human PD-1) (Homo sapiens, UniProt Q15116); assay: Jurkat-PD-1 Cell Binding High-Content Screening Assay (CBA); settings: Jurkat-hPD-1 cells, PE-labeled PD-L1-Ig 20 nM final; read-out: Jurkat HPD1 PDL1 IC50
T1 construct: expressed in transfected cells; host or cells: Jurkat
In short: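 Compound is added first to the PD-1-expressing Jurkat cells and held 2 h at 37 °C in serum-containing DMEM. The fluorescent PD-L1 fusion follows at 20 nM final for 1 h. Fixed, Hoechst-stained cells are then imaged for bound label.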

T1 sequence (Q15116 25-288): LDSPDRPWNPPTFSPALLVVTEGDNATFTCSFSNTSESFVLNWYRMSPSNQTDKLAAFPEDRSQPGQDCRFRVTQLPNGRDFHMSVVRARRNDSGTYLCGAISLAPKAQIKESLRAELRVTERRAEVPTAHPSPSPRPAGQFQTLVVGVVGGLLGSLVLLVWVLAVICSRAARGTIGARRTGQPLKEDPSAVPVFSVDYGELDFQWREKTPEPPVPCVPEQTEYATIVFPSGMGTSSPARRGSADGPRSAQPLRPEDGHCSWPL

Row | IC50 | SMILES
1 | 121 nM | CC(C)C[C@@H]1NC(=O)[C@H](Cc2c[nH]c3ccccc23)NC(=O)[C@H](CC(=O)O)NC(=O)[C@H](Cc2ccncc2)NC(=O)[C@H](Cc2ccc(OCC(=O)O)cc2)NC(=O)CSC[C@@H](C(=O)N2CCNC[C@H]2C(=O)NCCCCCCCCCCC(=O)O)NC(=O)[C@H](C(C)O)NC(=O)[C@H](C(C)C)NC(=O)[C@H](CC2CCCCC2)NC(=O)[C@H](CCN)NC(=O)[C@@H](CC(C)C)NC(=O)[C@H](C)N(C)C(=O)[C@H](C(C)C)NC(=O)[C@H](Cc2ccc(-c3ccccc3)cc2)NC1=O (stereo partly drawn) [Example 1221] ({CH2CO}-Y(Carboxymethyl)[4Pal]DWL[Bip]V[NMeA][dL][Dab][Cha]V[Thr(3ξ)]C[Pip(4-aza)][Aun]-OH; thioether N-14)
2 | 13 nM | Cc1cccc(C[C@@H]2NC(=O)[C@H](CC(=O)O)NC(=O)[C@H](Cc3ccc(C(=O)O)cc3)NC(=O)[C@H](Cc3ccc(OCC(=O)O)cc3)NC(=O)CSC[C@@H](C(=O)N[C@H](CC(N)=O)C(=O)NCCCCCCCCCCC(=O)O)NC(=O)[C@H](C(C)O)NC(=O)[C@H](C(C)C)NC(=O)[C@H](CC3CCCCC3)NC(=O)[C@H](CCN)NC(=O)[C@@H](CC(C)C)NC(=O)[C@H](C)N(C)C(=O)[C@H](CCCNC(N)=O)NC(=O)[C@H](Cc3ccc(-c4ccccc4)cc3)NC(=O)[C@H](CC(C)C)NC2=O)c1 (stereo partly drawn) [Example 2327] ({CH2CO}-Y(Carboxymethyl)[Phe(4-COOH)]D[Phe(3-Me)]L[Bip][Cit][NMeA][dL][Dab][Cha]V[Thr(3ξ)]C[dN][Aun]-OH; thioether N-14)
3 | 15.8 nM | CC(C)C[C@@H]1NC(=O)[C@H](Cc2c[nH]c3ccccc23)NC(=O)[C@H](CC(=O)O)NC(=O)[C@H](Cc2ccncc2)NC(=O)[C@H](Cc2ccc(OCC(=O)O)cc2)NC(=O)CSC[C@@H](C(=O)N[C@@H](CCCCN)C(=O)NCCCCCCCCCCC(=O)O)NC(=O)[C@H](CN)NC(=O)[C@H](C(C)C)NC(=O)[C@H](CC2CCCCC2)NC(=O)[C@H](CCN)NC(=O)[C@@H](CC(C)C)NC(=O)[C@H](C)N(C)C(=O)[C@H](C(C)C)NC(=O)[C@H](Cc2ccc(-c3ccccc3)cc2)NC1=O [Example 1349] ({CH2CO}-Y(Carboxymethyl)[4Pal]DWL[Bip]V[NMeA][dL][Dab][Cha]V[Dap]CK[Aun]-OH; thioether N-14)
4 | 9.1 nM | CC(C)C[C@@H]1NC(=O)[C@H](Cc2c[nH]c3ccccc23)NC(=O)[C@H](CC(=O)O)NC(=O)[C@H](Cc2ccncc2)NC(=O)[C@H](Cc2ccc(OCC(=O)O)cc2)NC(=O)CSC[C@@H](C(=O)N[C@@H](CCN)C(=O)NCCCCCCCCCCC(=O)O)NC(=O)[C@H](CCC(N)=O)NC(=O)[C@H](C(C)C)NC(=O)[C@H](CC2CCCCC2)NC(=O)[C@H](CCN)NC(=O)[C@@H](CC(C)C)NC(=O)[C@H](C)N(C)C(=O)[C@H](C(C)C)NC(=O)[C@H](Cc2ccc(-c3ccccc3)cc2)NC1=O [Example 1341] ({CH2CO}-Y(Carboxymethyl)[4Pal]DWL[Bip]V[NMeA][dL][Dab][Cha]VQC[Dab][Aun]-OH; thioether N-14)
5 | 18.6 nM | CC[C@H](C)[C@@H]1NC(=O)[C@H](Cc2ccc(-c3ccccc3)cc2)NC(=O)[C@H](CC(C)C)NC(=O)[C@H](Cc2c[nH]c3ccccc23)NC(=O)[C@H](CC(=O)O)NC(=O)[C@H](Cc2ccc(C(=O)O)cc2)NC(=O)[C@H](Cc2ccc(OCC(=O)O)cc2)NC(=O)CSC[C@@H](C(=O)N[C@@H](CCCNC(=N)N)C(=O)NCCOCCOCC(=O)NCCCCCCCCCCC(=O)O)NC(=O)[C@H](CO)NC(=O)[C@H](C(C)C)NC(=O)[C@H](CC2CCCCC2)NC(=O)[C@H](CCN)NC(=O)[C@@H](CC(C)C)NC(=O)[C@H](C)N(C)C1=O [Example 1080] ({CH2CO}-Y(Carboxymethyl)[Phe(4-COOH)]DWL[Bip]I[NMeA][dL][Dab][Cha]VSCR[AEEA][Aun]-OH; thioether N-14)
6 | 13 nM | CC(=O)NCCCC[C@@H]1NC(=O)[C@H](C(C)C)NC(=O)[C@H](CC2CCCCC2)NC(=O)[C@H](CCN)NC(=O)[C@@H](CC(C)C)NC(=O)[C@H](C)N(C)C(=O)[C@H](CCC(N)=O)NC(=O)[C@H](Cc2ccc(-c3ccccc3)cc2)NC(=O)[C@H](CC(C)C)NC(=O)[C@H](Cc2cccc(C)c2)NC(=O)[C@H](CC(=O)O)NC(=O)[C@H](Cc2ccc(C(=O)O)cc2)NC(=O)[C@H](Cc2ccc(OCC(=O)O)cc2)NC(=O)CSC[C@@H](C(=O)NCCOCCOCC(=O)NCCCCCCCCCCC(=O)O)NC1=O [Example 2230] ({CH2CO}-Y(Carboxymethyl)[Phe(4-COOH)]D[Phe(3-Me)]L[Bip]Q[NMeA][dL][Dab][Cha]VK(Ac)C[AEEA][Aun]-OH; thioether N-14)
7 | 21.7 nM | Cc1cccc(C[C@@H]2NC(=O)[C@H](CC(=O)O)NC(=O)[C@H](Cc3ccc(OCC(=O)O)cc3)NC(=O)[C@H](C(C)O)NC(=O)CSC[C@@H](C(=O)N[C@H](CC(N)=O)C(=O)NCCCCCCCCCCC(=O)O)NC(=O)[C@H](C(C)O)NC(=O)[C@H](C(C)C)NC(=O)[C@H](CC3CCCCC3)NC(=O)[C@H](CCN)NC(=O)[C@@H](CC(C)C)NC(=O)[C@H](C)N(C)C(=O)[C@H](Cc3ccc(O)cc3)NC(=O)[C@H](Cc3ccc(-c4ccccc4)cc3)NC(=O)[C@H](Cc3ccc(O)cc3)NC2=O)c1 (stereo partly drawn) [Example 2314] ({CH2CO}-[Thr(3ξ)]Y(Carboxymethyl)D[Phe(3-Me)]Y[Bip]Y[NMeA][dL][Dab][Cha]V[Thr(3ξ)]C[dN][Aun]-OH; thioether N-14)
8 | 18 nM | CC(C)C[C@H]1NC(=O)[C@H](C)N(C)C(=O)[C@H](C(C)C)NC(=O)[C@H](Cc2ccc(-c3ccccc3)cc2)NC(=O)[C@H](C(C)C)NC(=O)[C@H](Cc2c[nH]c3ccccc23)NC(=O)[C@H](CC(=O)O)NC(=O)[C@H](Cc2ccc(C(=O)O)cc2)NC(=O)[C@H](Cc2ccc(OCC(=O)O)cc2)NC(=O)CSC[C@@H](C(=O)N[C@@H](CCN)C(=O)NCCCCCCCCCCC(=O)O)NC(=O)[C@H](CCCNC(N)=O)NC(=O)[C@H](C(C)C)NC(=O)[C@H](CC2CCCCC2)NC(=O)[C@H](CCN)NC1=O [Example 2290] ({CH2CO}-Y(Carboxymethyl)[Phe(4-COOH)]DWV[Bip]V[NMeA][dL][Dab][Cha]V[Cit]C[Dab][Aun]-OH; thioether N-14)
9 | 6.7 nM | Cc1cccc(C[C@@H]2NC(=O)[C@H](CC(=O)O)NC(=O)[C@H](Cc3ccc(OCC(=O)O)cc3)NC(=O)[C@H](C(C)O)NC(=O)CSC[C@@H](C(=O)N[C@@H](CCN)C(=O)NCCCCCCCCCCC(=O)O)NC(=O)[C@H](C(C)O)NC(=O)[C@H](C(C)C)NC(=O)[C@H](CC3CCCCC3)NC(=O)[C@H](CCN)NC(=O)[C@@H](CC(C)C)NC(=O)[C@H](C)N(C)C(=O)[C@H](CCCNC(N)=O)NC(=O)[C@H](Cc3ccc(-c4ccccc4)cc3)NC(=O)[C@H](C(C)C)NC2=O)c1 (stereo partly drawn) [Example 2336] ({CH2CO}-[Thr(3ξ)]Y(Carboxymethyl)D[Phe(3-Me)]V[Bip][Cit][NMeA][dL][Dab][Cha]V[Thr(3ξ)]C[Dab][Aun]-OH; thioether N-14)

same assay, conditions: PE-labeled PD-L1-Ig 20 nM final, Jurkat-hPD-1 cells; read-out: Jurkat HPD1 PDL1 IC50

Row | IC50 | SMILES
10 | 23.6 nM | CC(C)C[C@@H]1NC(=O)[C@H](Cc2c[nH]c3ccccc23)NC(=O)[C@H](CC(=O)O)NC(=O)[C@H](Cc2ccc(C(=O)O)cc2)NC(=O)[C@H](Cc2ccc(OCC(=O)O)cc2)NC(=O)CSC[C@@H](C(=O)NCCOCCOCC(=O)NCCCCCCCCCCC(=O)O)NC(=O)[C@H](CO)NC(=O)[C@H](C(C)(C)O)NC(=O)[C@H](CC2CCCCC2)NC(=O)[C@H](CCN)NC(=O)[C@@H](CC(C)C)NC(=O)[C@H](C)N(C)C(=O)[C@H](C(C)C)NC(=O)[C@H](Cc2ccc(-c3ccccc3)cc2)NC1=O [Example 2443] ({CH2CO}-Y(Carboxymethyl)[Phe(4-COOH)]DWL[Bip]V[NMeA][dL][Dab][Cha][Val(3-OH)]SC[AEEA][Aun]-OH; thioether N-14)
11 | 8.7 nM | Cc1cccc(C[C@@H]2NC(=O)[C@H](CC(=O)O)NC(=O)[C@H](Cc3ccc(OCC(=O)O)cc3)NC(=O)[C@H](C(C)O)NC(=O)CSC[C@@H](C(=O)N[C@@H](CCN)C(=O)NCCOCCOCC(=O)NCCCCCCCCCCC(=O)O)NC(=O)[C@H](Cc3cnc[nH]3)NC(=O)[C@H](C(C)(C)O)NC(=O)[C@H](CC3CCCCC3)NC(=O)[C@H](CCN)NC(=O)[C@@H](CC(C)C)NC(=O)[C@H](C)N(C)C(=O)[C@H](Cc3ccc(OCC(=O)O)cc3)NC(=O)[C@H](Cc3ccc(-c4ccccc4)cc3)NC(=O)[C@H](Cc3ccc(OCC(=O)O)cc3)NC2=O)c1 (stereo partly drawn) [Example 2470] ({CH2CO}-[Thr(3ξ)]Y(Carboxymethyl)D[Phe(3-Me)]Y(Carboxymethyl)[Bip]Y(Carboxymethyl)[NMeA][dL][Dab][Cha][Val(3-OH)]HC[Dab][AEEA][Aun]-OH; thioether N-14)
12 | 21.3 nM | Cc1cccc(C[C@@H]2NC(=O)[C@H](CC(=O)O)NC(=O)[C@H](Cc3ccc(C(=O)O)cc3)NC(=O)[C@H](C)NC(=O)CSC[C@@H](C(=O)N[C@@H](CCN)C(=O)NCCCCCCCCCCC(=O)O)NC(=O)[C@H](C(C)O)NC(=O)[C@H](C(C)C)NC(=O)[C@H](CC3CCCCC3)NC(=O)[C@H](CCN)NC(=O)[C@@H](CC(C)C)NC(=O)[C@H](C)N(C)C(=O)[C@H](Cc3ccc(C(=O)O)cc3)NC(=O)[C@H](Cc3ccc(-c4ccccc4)cc3)NC(=O)[C@H](Cc3ccc(C(F)(F)F)cc3)NC2=O)c1 (stereo partly drawn) [Example 2582] ({CH2CO}-A[Phe(4-COOH)]D[Phe(3-Me)][Phe(4-CF3)][Bip][Phe(4-COOH)][NMeA][dL][Dab][Cha]V[Thr(3ξ)]C[Dab][Aun]-OH; thioether N-14)
13 | 405 nM | Cc1cccc(C[C@@H]2NC(=O)[C@H](CC(=O)O)NC(=O)[C@H](Cc3ccc(OCC(=O)O)cc3)NC(=O)[C@H](C(C)O)NC(=O)CSC[C@@H](C(=O)N[C@@H](CCN)C(=O)NCCOCCOCC(=O)NCCCCCCCCCCCCCCC(=O)O)NC(=O)[C@H](CCC(=O)O)NC(=O)[C@H](C(C)C)NC(=O)[C@H](CC3CCCCC3)NC(=O)[C@H](CCN)NC(=O)[C@@H](CC(C)C)NC(=O)[C@H](C)N(C)C(=O)[C@H](Cc3ccc(OCC(=O)O)cc3)NC(=O)[C@H](Cc3ccc(-c4ccccc4)cc3)NC(=O)[C@H](Cc3ccc(C(=O)O)cc3)NC2=O)c1 (stereo partly drawn) [Example 2603] ({CH2CO}-[Thr(3ξ)]Y(Carboxymethyl)D[Phe(3-Me)][Phe(4-COOH)][Bip]Y(Carboxymethyl)[NMeA][dL][Dab][Cha]VEC[Dab][AEEA]-{NH(CH2)14COOH}; thioether N-14)
